Reference: ChEMBL document CHEMBL3046231 (Med Chem Res, 2008)

Tests used:
[1] = tested on: Mus musculus; test: Toxicity in Mus musculus albino (mouse) assessed as effect on gross behavior at 75 umole/kg, ip; format: organism-based; details: in vivo
[2] = tested on: Mus musculus; test: Antidepressant activity in Mus musculus albino (mouse) assessed as reversal of reserpine-induced ptosis at 75 umole/kg, ip after 3 hr by chi-square test relative to control; format: functional
[3] = tested on: Mus musculus; test: Anorexigenic activity in Mus musculus albino (mouse) assessed as reduction of milk intake at 75 umole/kg, ip relative to control; format: functional; design: scale not given: the % may be the effect or the level left

Row | SMILES | Activity [1] | Activity [2] | Activity [3]
1 | COc1cc(NC(=S)N(C)CCC(Oc2ccc(C(F)(F)F)cc2)c2ccccc2)cc(OC)c1OC (configuration not stated) | Non-toxic | 100% | 
2 | CN(CCC(Oc1ccc(C(F)(F)F)cc1)c1ccccc1)C(=S)NC(C)(C)C (configuration not stated) | Non-toxic | 100% | 
3 | COc1ccc(NC(=S)N(C)CCC(Oc2ccc(C(F)(F)F)cc2)c2ccccc2)cc1 (configuration not stated) | Non-toxic | 100% | 
4 | CC(C)NC(=S)N(C)CCC(Oc1ccc(C(F)(F)F)cc1)c1ccccc1 (configuration not stated) | Non-toxic | 100% | 
5 | CN(C[C@@H]1CCc2ccccc2[C@@H]1Oc1ccc(C(F)(F)F)cc1)C(=S)NCCc1ccccc1 | Non-toxic | 100% | 
6 | CN(C[C@@H]1CCc2ccccc2[C@@H]1Oc1ccc(C(F)(F)F)cc1)C(=O)NC1CCCCC1 | Non-toxic | 100% | 
7 | CN(C[C@@H]1CCc2ccccc2[C@@H]1Oc1ccc(C(F)(F)F)cc1)C(=O)NCCc1ccccc1 | Non-toxic | 100% | 
8 | CC1CCC(NC(=O)N(C)C[C@@H]2CCc3ccccc3[C@@H]2Oc2ccc(C(F)(F)F)cc2)CC1 (some centres not stated) | Non-toxic | 80% | 
9 | CN(CCC(Oc1ccc(C(F)(F)F)cc1)c1ccccc1)C(=O)NC1CCCCC1 (configuration not stated) | Non-toxic | 80% | 
10 | CN(CCC(Oc1ccc(C(F)(F)F)cc1)c1ccccc1)C(=S)NCCc1ccccc1 (configuration not stated) | Non-toxic | 40% | 
11 | CN(CCC(Oc1ccc(C(F)(F)F)cc1)c1ccccc1)C(=S)NCc1ccccc1 (configuration not stated) | Non-toxic | 100% | 
12 | Cc1ccc(NC(=S)N(C)CCC(Oc2ccc(C(F)(F)F)cc2)c2ccccc2)cc1 (configuration not stated) | Non-toxic | 80% | 
13 | CN(CCC(Oc1ccc(C(F)(F)F)cc1)c1ccccc1)C(=O)NCCc1ccccc1 (configuration not stated) | Non-toxic | 100% | 
14 | CN(CCC(Oc1ccc(C(F)(F)F)cc1)c1ccccc1)C(=S)NC1CCCCC1 (configuration not stated) | Non-toxic | 100% | 
15 | CN(CCC(Oc1ccc(C(F)(F)F)cc1)c1ccccc1)C(=S)Nc1ccccc1 (configuration not stated) | Non-toxic | 100% | 
16 | CN(CCC(Oc1ccc(C(F)(F)F)cc1)c1ccccc1)C(=S)NC(=O)c1ccccc1 (configuration not stated) | Non-toxic | 100% | 
17 | CC1CCC(NC(=S)N(C)CCC(Oc2ccc(C(F)(F)F)cc2)c2ccccc2)CC1 (configuration not stated) | Non-toxic | 60% | 
18 | CNCCC(Oc1ccc(C(F)(F)F)cc1)c1ccccc1 (configuration not stated) [FLUOXETINE] |  | 0% | 78.49%
19 | COC(=O)[C@H]1[C@H]2C[C@@H]3c4[nH]c5cc(OC)ccc5c4CCN3C[C@H]2C[C@@H](OC(=O)c2cc(OC)c(OC)c(OC)c2)[C@@H]1OC [RESERPINE] |  | 100% | 
